Tests used:
Format in all cases: cell-based
[1] = test system: mold; assay: ASTM 3273 fungal growth test on paper sheets, biocide added to pulp slurry; parameters: key to ASTM 3273 rating Week 1: 0: 100% mold coverage; 1: 90%; 2: 80%; 3: 70%; 4: 60%; 5: 50%; 6: 40%; 7: 30%; 8: 20%; 9: 10%; 10: no mold growth coverage; 8: 20% mold coverage; 9: 10% mold coverage; 10: no mold growth; key to ASTM 3273 rating Week 2 / ASTM 3273 rating Week 3 / ASTM 3273 rating Week 4: 100% mold coverage; 1: 90% mold coverage; 2: 80% mold coverage; 3: 70% mold coverage; 4: 60% mold coverage; 50% mold coverage; 6: 40% mold coverage; 7: 30% mold coverage; 8: 20% mold coverage; 9: 10% mold coverage; 10: no mold growth; conditions: for ASTM 3273 rating Week 1 / ASTM 3273 rating Week 2 / ASTM 3273 rating Week 3 / ASTM 3273 rating Week 4: average of three sheets
Procedure: (§1) The biocides can be evaluated in the following examples by adding to a 0.4 wt % pulp slurry in water (100% recycle) typically used for gypsum wallboard facing paper. The slurry is filtered through a screen to drain the water from the stock and the resulting paper mat is blotted, couched, and dried to form a paper sheet with a basis weight of approximately 40 lb/1000 ft2. Three sheets per condition are prepared. High Performance Liquid Chromatography (HPLC) is used to determine the amount of biocide present in each sheet. The paper sheets are evaluated for fungal growth via ASTM 3273, currently the industry standard for mold-resistant wallboard, as well as the standard TAPPI T-487 fungal efficacy test.
(§2) The values in Tables 1 and 2 below represent data from samples made substantially according to the preceding protocol. The average concentration of active biocide in the paper and the average test rating based on three paper sheets are shown. Based on tables 1 and 2, approximately 4-4.5 times more DIMTS active was needed in the paper sheet than OIT before no mold growth was observed throughout the entire testing period.
(§3) For ASTM 3273, a 4-week test, the following rating scale applies: • 0—100% mold coverage • 1—90% mold coverage • 2—80% mold coverage • 3—70% mold coverage • 4—60% mold coverage • 5—50% mold coverage • 6—40% mold coverage • 7—30% mold coverage • 8—20% mold coverage • 9—10% mold coverage • 10—no mold growth For TAPPI T-487, a 3-week test, the following rating scale applies: • 0—no mold growth • 1—25% mold coverage • 2—50% mold coverage • 3—75% mold coverage • 4—100% mold coverage

[2] = test system: mold; assay: TAPPI T-487 test on surface-treated paper; parameters: key to TAPPI T-487 rating Week 1 / TAPPI T-487 rating Week 2 / TAPPI T-487 rating Week 3: 100% mold coverage; 1: 90% mold coverage; 2: 80% mold coverage; 3: 70% mold coverage; 4: 60% mold coverage; 50% mold coverage; 6: 40% mold coverage; 7: 30% mold coverage; 8: 20% mold coverage; 9: 10% mold coverage; 10: no mold growth; conditions: surface treatment, average of three sheets
Procedure: The papers of this example were prepared via surface treatment. The values in Table 3 below represent the average concentration of active biocide in the paper and the average […]-487 test rating based on three paper sheets.

[3] = test system: mold; assay: TAPPI T-487 fungal efficacy test on paper sheets, biocide added to pulp slurry; parameters: key: coverage; 8: 20% mold coverage; 9: 10% mold coverage; 10: no mold growth; conditions: average of three sheets
Procedure: as §1, §2, §3

[4] = test system: mold; assay: ASTM-G21 Fungal Resistant Test Method on paper handsheets; parameters: key: 0: None; Traces of growth (<10%); 2: Light growth (10-30%); Medium growth (30-60%); 4: Heavy growth (60-complete coverage); conditions: for Mold Resistance Rating Week 1 A / Mold Resistance Rating Week 2 A: replicate A; for Mold Resistance Rating Week 1 B / Mold Resistance Rating Week 2 B: replicate B
Procedure: Results are compared with paper hand sheets incorporating DIMTS in the same manner, as well as handsheets with no biocide added. Handsheets are formed using a commercial handsheet mold which makes sheets 8×8 inches in area. The weights of the handsheets are 11-12 lbs/1000 ft^2 representing the typical basis weight of just the liner (outer facing plys) of the multi-ply wallboard paper. The 3:1 carbendazim/IPBC blend is added to the paper slurry (0.7 wt %) prior to forming the handsheets. Recycled news print paper is used as the source of fiber for handsheets. High Performance Liquid Chromatography (HPLC) is used to determine the amount of biocide present in each sheet, however, this method is not capable of detecting the levels of IPBC in the handsheets, therefore only carbendazim values are reported in Table 4 as weight of active (mg) per kg of paper. The handsheets are evaluated for fungal resistance using ASTM G21 over a two-week test period. A and B represent replicate analyses of same handsheet in Table 4.

Cc1ccc(S(=O)(=O)C(I)I)cc1 [DIMTS, diiodomethyltolylsulfone]
1 (Traces of growth (<10%)): Mold Resistance Rating Week 1 A ([4]; 281 ppm active in handsheet) | Mold Resistance Rating Week 1 B ([4]; 281 ppm active in handsheet) | Mold Resistance Rating Week 1 A ([4]; 297 ppm active in handsheet) | Mold Resistance Rating Week 1 B ([4]; 297 ppm active in handsheet) | Mold Resistance Rating Week 2 A ([4]; 354 ppm active in handsheet) | Mold Resistance Rating Week 2 B ([4]; 354 ppm active in handsheet)
6 (40% mold coverage): ASTM 3273 rating Week 4 ([1]; 660 ppm in paper sheet)
2 (50% mold coverage): TAPPI T-487 rating Week 1 ([2]; 43 ppm in paper) | TAPPI T-487 rating Week 2 ([3]; 386 ppm in paper sheet) | TAPPI T-487 rating Week 2 ([3]; 553 ppm in paper sheet)
0 (100% mold coverage): ASTM 3273 rating Week 3 ([1]; 370 ppm in paper sheet) | ASTM 3273 rating Week 4 ([1]; 370 ppm in paper sheet)
4 (100% mold coverage): TAPPI T-487 rating Week 2 ([2]; 43 ppm in paper) | TAPPI T-487 rating Week 3 ([2]; 43 ppm in paper)
0: TAPPI T-487 rating Week 1 ([2]; 563 ppm in paper) | TAPPI T-487 rating Week 2 ([2]; 563 ppm in paper) | TAPPI T-487 rating Week 3 ([2]; 563 ppm in paper) | TAPPI T-487 rating Week 1 ([2]; 5389 ppm in paper) | TAPPI T-487 rating Week 2 ([2]; 5389 ppm in paper) | TAPPI T-487 rating Week 3 ([2]; 5389 ppm in paper) | TAPPI T-487 rating Week 1 ([3]; 386 ppm in paper sheet) | TAPPI T-487 rating Week 1 ([3]; 553 ppm in paper sheet) | TAPPI T-487 rating Week 1 ([3]; 855 ppm in paper sheet) | TAPPI T-487 rating Week 2 ([3]; 855 ppm in paper sheet) | TAPPI T-487 rating Week 3 ([3]; 855 ppm in paper sheet) | Mold Resistance Rating Week 1 A ([4]; 354 ppm active in handsheet) | Mold Resistance Rating Week 1 B ([4]; 354 ppm active in handsheet) | Mold Resistance Rating Week 1 A ([4]; 732 ppm active in handsheet) | Mold Resistance Rating Week 1 B ([4]; 732 ppm active in handsheet) | Mold Resistance Rating Week 2 A ([4]; 732 ppm active in handsheet) | Mold Resistance Rating Week 2 B ([4]; 732 ppm active in handsheet) | Mold Resistance Rating Week 1 A ([4]; 748 ppm active in handsheet) | Mold Resistance Rating Week 1 B ([4]; 748 ppm active in handsheet) | Mold Resistance Rating Week 2 A ([4]; 748 ppm active in handsheet) | Mold Resistance Rating Week 2 B ([4]; 748 ppm active in handsheet)
7 (30% mold coverage): ASTM 3273 rating Week 3 ([1]; 660 ppm in paper sheet)
4 (Heavy growth (60-complete coverage)): Mold Resistance Rating Week 2 A ([4]; 281 ppm active in handsheet) | Mold Resistance Rating Week 2 B ([4]; 281 ppm active in handsheet) | Mold Resistance Rating Week 2 A ([4]; 297 ppm active in handsheet) | Mold Resistance Rating Week 2 B ([4]; 297 ppm active in handsheet)
10: ASTM 3273 rating Week 1 ([1]; 370 ppm in paper sheet) | ASTM 3273 rating Week 1 ([1]; 660 ppm in paper sheet) | ASTM 3273 rating Week 1 ([1]; 1272 ppm in paper sheet) | ASTM 3273 rating Week 2 ([1]; 1272 ppm in paper sheet) | ASTM 3273 rating Week 3 ([1]; 1272 ppm in paper sheet) | ASTM 3273 rating Week 4 ([1]; 1272 ppm in paper sheet)
4-4.5 times: DIMTS active needed in the paper sheet relative to OIT before no mold growth was observed throughout the entire testing period ([1]; approximately, based on tables 1 and 2 (ASTM 3273 and TAPPI T-487))
3 (75% mold coverage): TAPPI T-487 rating Week 3 ([3]; 386 ppm in paper sheet) | TAPPI T-487 rating Week 3 ([3]; 553 ppm in paper sheet)
8 (20% mold coverage): ASTM 3273 rating Week 2 ([1]; 370 ppm in paper sheet) | ASTM 3273 rating Week 2 ([1]; 660 ppm in paper sheet)
